≈ marks a conversion by molar mass, not a printed value.

The values that follow come from patent publication US9315527B2, “Synthesis and applications of peripherally asymmetric aryl POSS compounds” (The United States of America as Represented by the …, priority 2011, dated 2016).

The conditions of data set [1]: chloroform, benchmark; cited from earlier work.
Data set [2] can be described thus: Phase behavior of POSS in polyetherimide (Ultem 1000, PEI): chloroform solutions and drop cast annealed films. Particulars: for Appearance of chloroform solution containing PEI and POSS: 5 weight percent PEI in chloroform, POSS 5 weight percent with respect to PEI. It is filed as physicochemical. As to the method:
To examine the phase behavior of this new class of peripherally-asymmetric POSS nanoparticles with a representative aromatic polymer, attempts were made to solubilize both phenyl8Si8O12 and (1-naphthyl)phenyl7Si8O12 in polyetherimide (Ultem 1000, PEI). Chloroform solutions were prepared at a solute concentration of 5 weight percent PEI and POSS concentration of 5 weight percent with respect to PEI. Subsequent films from these solutions were drop cast onto glass substrates, dried under vacuum, and annealed at 220° C., above the glass transition temperature of PEI, to promote equilibrium phase formation.
Qualitatively, the dried and annealed films were visually observed to be of contrasting appearance.

The nature of data set [3]: Solubility of aromatic POSS compounds in organic solvents by visual measurements. The format is physicochemical. Particulars: visual measurement; for Solubility in CHCl3: chloroform; for Solubility in PE: phenyl ether; for Solubility in Tol: toluene; for Solubility in DMF: dimethyl formamide; for Solubility in THF: tetrahydrofuran. The protocol: The influence of the prescribed peripheral asymmetry of these compounds on solubility was determined by visual measurements in five organic solvents, including chloroform (CHCl3), tetrahydrofuran (THF), phenyl ether (PE), toluene (Tol), and dimethyl formamide (DMF), summarized in Table 1.
The substitution of a single polycyclic aromatic ring on the POSS cage improves solubility substantially in most cases. However, it is difficult to predict the influence of each aromatic group on the observed solubility, as well as in which solvent the solubility will be affected. Modification with a 1-naphthyl group to produce (1-naphthyl)-phenyl7Si8O12 (3) results in solubility in CHCl3 and THF exceeding 100 mg/mL and the observance of more finite solubility in the other investigated solvents. Modification with a 2-naphthyl group to produce (2-naphthyl)phenyl7Si8O12 (4) increases solubility in PE and DMF, but reduces solubility in THF and CHCl3, when compared to (1-naphthyl)-phenyl7Si8O12 (3).

Regarding `c1ccc([Si]23O[Si]4(c5ccccc5)O[Si]5(c6ccccc6)O[Si](c6ccccc6)(O2)O[Si]2(c6ccccc6)O[Si](c6ccccc6)(O3)O[Si](c3ccccc3)(O4)O[Si](c3ccccc3)(O5)O2)cc1` [Compound 2, phenyl8Si8O12], the “Solubility in CHCl3 (previously documented)” value in data set [1] is “about 1 mg/mL”. Moreover, the “Appearance of chloroform solution containing PEI and POSS” value in data set [2] was “cloudy”. Besides, the “Visual appearance of dried and annealed PEI film” value in data set [2] (drop cast film, annealed at 220° C.) was “significantly more opaque”. Moreover, the “Length scale of aggregated particles in PEI film” value in data set [2] (drop cast film, annealed at 220° C., microscopy, some regions) is reported as “greater than 1 mm”. Further, in data set [3], the “Solubility in CHCl3” value turned out to be 1 mg/mL (≈ 968 µM), the “Solubility in PE” value was “^a (Insoluble.)” and the “Solubility in Tol” value is recorded as “^a (Insoluble.)”.
In the case of (1-naphthyl)-phenyl7Si8O12 [Compound 3], in data set [2], the “Appearance of chloroform solution containing PEI and POSS” value was “transparent”. The “Phase separation length scale in PEI film” value in data set [2] (drop cast film, annealed at 220° C., microscopy) is “less than 5 microns”. In addition, in data set [3], the “Solubility in DMF” value came out at 24 mg/mL, the “Solubility in PE” value stood at 15 mg/mL and the “Solubility in Tol” value is reported as “^a (Insoluble.)”.
(1-pyrenyl)phenyl7Si8O12 [Compound 6]: in data set [3], the “Solubility in CHCl3” value is listed as 7 mg/mL, the “Solubility in DMF” value is reported as 5 mg/mL, the “Solubility in PE” value came out at 4 mg/mL and the “Solubility in THF” value was 10 mg/mL. Also, the “Solubility in Tol” value in data set [3] worked out at 5 mg/mL.
Turning to (2-naphthyl)phenyl7Si8O12 [Compound 4], in data set [3], the “Solubility in CHCl3” value was 55 mg/mL, the “Solubility in DMF” value is given as 35 mg/mL, the “Solubility in PE” value is listed as 53 mg/mL and the “Solubility in THF” value is 28 mg/mL. Besides, the “Solubility in Tol” value in data set [3] is reported as “^a (Insoluble.)”.
Regarding “(9-phenanthrenyl)-phenyl7Si8O12 [Compound 5]”, in data set [3], the “Solubility in CHCl3” value was found to be 52 mg/mL, the “Solubility in DMF” value is 57 mg/mL, the “Solubility in PE” value is reported as 25 mg/mL and the “Solubility in THF” value is 117 mg/mL. Besides, in data set [3], the “Solubility in Tol” value is 27 mg/mL.
